Columns and labels:
Experiment in all cases: fitness (endpoint OD595 vs no drug) (fraction); higher = more growth
[1] = test system: S. pneumoniae D39V
Method in brief: (§1)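 Each well of a 384-well plate received 30 µl of culture at OD595 0.01, or 55 µl for S. pneumoniae. TSB, LB Lennox or CY served as media at 37 °C. OD595 was taken every 30 min for 14 h and corrected by subtracting the first reading. Fitness is the optical density at stationary-phase entry divided by the robust mean of no-drug controls, capped at 1.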

[2] = test system: S. aureus Newman
Method in brief: as §1

[3] = test system: S. aureus DSM 20231
Method in brief: as §1

CO[C@@]12[C@H](COC(N)=O)C3=C(C(=O)C(C)=C(N)C3=O)N1C[C@@H]1N[C@@H]12 [Mitomycin C] + C/C(=C\C(=O)OCCCCCCCCC(=O)O)C[C@@H]1OC[C@H](C[C@@H]2O[C@H]2[C@@H](C)[C@H](C)O)[C@@H](O)[C@H]1O [Pseudomonic acid]
fitness, [1]
Conditions | first compound 0.001075 µg/mL | first compound 0.002 µg/mL | first compound 0.00215 µg/mL | first compound 0.004 µg/mL | first compound 0.0043 µg/mL | first compound 0.008 µg/mL
partner 0.03 µg/mL | 0.914 | 0.855 | 0.919 | 0.741 | 0.818 | 0.612
partner 0.06 µg/mL | 0.806 | 0.725 | 0.795 | 0.64 | 0.731 | 0.523
partner 0.12 µg/mL | 0.587 | 0.549 | 0.584 | 0.498 | 0.51 | 0.322

fitness, [2], one replicate
Conditions | first compound 0.0156 µg/mL | first compound 0.0312 µg/mL | first compound 0.0625 µg/mL
partner 0.0313 µg/mL | 0.0474 | 0.0196 | 0.0148
partner 0.0625 µg/mL | 0.0185 | 0.0244 | 0.0093
partner 0.125 µg/mL | 0.0351 | 0.0217 | 0.029

CO[C@@]12[C@H](COC(N)=O)C3=C(C(=O)C(C)=C(N)C3=O)N1C[C@@H]1N[C@@H]12 [Mitomycin C] + CC1(C)S[C@@H]2[C@H](NC(=O)Cc3ccccc3)C(=O)N2[C@H]1C(=O)O [Penicillin G]
fitness, [2]
Conditions | first compound 0.0156 µg/mL | first compound 0.0312 µg/mL | first compound 0.0625 µg/mL
partner 0.0195 µg/mL | 0.671 | 0.562 | 0.441
partner 0.039 µg/mL | 0.646 | 0.556 | 0.389
partner 0.078 µg/mL | 0.636 | 0.564 | 0.412

CO[C@@]12[C@H](COC(N)=O)C3=C(C(=O)C(C)=C(N)C3=O)N1C[C@@H]1N[C@@H]12 [Mitomycin C] + CC1=C\[C@@H](O)CC(=O)Cc2nc(co2)C(=O)N2CCC=C2C(=O)O[C@H](C(C)C)[C@H](C)/C=C/C(=O)NC\C=C\1 [Virginiamycin M1]
Conditions | fitness
[1], first compound 0.001075 µg/mL, partner 0.5 µg/mL | 0.966
[1], first compound 0.001075 µg/mL, partner 1 µg/mL | 0.929
[1], first compound 0.001075 µg/mL, partner 2 µg/mL | 0.928
[1], first compound 0.002 µg/mL, partner 2 µg/mL | 0.808
[1], first compound 0.00215 µg/mL, partner 0.5 µg/mL | 0.945
[1], first compound 0.00215 µg/mL, partner 1 µg/mL | 0.947
[1], first compound 0.00215 µg/mL, partner 2 µg/mL | 0.905
[1], first compound 0.004 µg/mL, partner 2 µg/mL | 0.783
[1], first compound 0.0043 µg/mL, partner 0.5 µg/mL | 0.856
[1], first compound 0.0043 µg/mL, partner 1 µg/mL | 0.839
[1], first compound 0.0043 µg/mL, partner 2 µg/mL | 0.835
[1], first compound 0.008 µg/mL, partner 2 µg/mL | 0.682
[3], first compound 0.0156 µg/mL, partner 0.0625 µg/mL | 0.697
[3], first compound 0.0156 µg/mL, partner 0.125 µg/mL | 0.712
[3], first compound 0.0156 µg/mL, partner 0.25 µg/mL | 0.747
[3], first compound 0.0312 µg/mL, partner 0.0625 µg/mL | 0.676
[3], first compound 0.0312 µg/mL, partner 0.125 µg/mL | 0.719
[3], first compound 0.0312 µg/mL, partner 0.25 µg/mL | 0.714
[3], first compound 0.0625 µg/mL, partner 0.0625 µg/mL | 0.576
[3], first compound 0.0625 µg/mL, partner 0.125 µg/mL | 0.579
[3], first compound 0.0625 µg/mL, partner 0.25 µg/mL | 0.578

fitness, one replicate
Conditions | partner 0.0625 µg/mL | partner 0.125 µg/mL | partner 0.15 µg/mL | partner 0.25 µg/mL | partner 0.3 µg/mL | partner 0.5 µg/mL | partner 1 µg/mL | partner 2 µg/mL
[1], first compound 0.002 µg/mL | – | – | 0.927 | – | 0.894 | 0.936 | 0.878 | –
[1], first compound 0.004 µg/mL | – | – | 0.849 | – | 0.823 | 0.887 | 0.854 | –
[1], first compound 0.008 µg/mL | – | – | 0.791 | – | 0.799 | 0.767 | 0.626 | –
[2], first compound 0.0156 µg/mL | 0.71 | 0.702 | – | 0.681 | – | 0.66 | 0.667 | 0.593
[2], first compound 0.0312 µg/mL | 0.683 | 0.662 | – | 0.761 | – | 0.657 | 0.602 | 0.544
[2], first compound 0.0625 µg/mL | 0.564 | 0.597 | – | 0.583 | – | 0.564 | 0.54 | 0.433
[3], first compound 0.0156 µg/mL | – | – | – | – | – | 0.774 | 0.825 | –
[3], first compound 0.0312 µg/mL | – | – | – | – | – | 0.681 | 0.701 | –
[3], first compound 0.0625 µg/mL | – | – | – | – | – | 0.515 | 0.611 | –

CO[C@@]12[C@H](COC(N)=O)C3=C(C(=O)C(C)=C(N)C3=O)N1C[C@@H]1N[C@@H]12 [Mitomycin C] + CCC(C)C1C(=O)NC(=C)C(=O)NC(C(=O)NC(CSCC(C(=O)N1)NC(=O)/C(=C/C)/NC(=O)C(C(C)CC)N)C(=O)NC2C(SCC(NC(=O)CNC(=O)C3CCCN3C2=O)C(=O)NC(CCCCN)C(=O)NC4C(SCC(NC(=O)CNC(=O)C(NC(=O)C(NC(=O)C(NC(=O)CNC4=O)C)CC(C)C)CCSC)C(=O)NC(CC(=O)N)C(=O)NC(CCSC)C(=O)NC(CCCCN)C(=O)NC5C(SCC6C(=O)NC(C(=O)NC(CSC(C(C(=O)N6)NC(=O)C(NC5=O)C)C)C(=O)NC(CO)C(=O)NC(C(C)CC)C(=O)NC(CC7=CN=CN7)C(=O)NC(C(C)C)C(=O)NC(=C)C(=O)NC(CCCCN)C(=O)O)CC8=CN=CN8)C)C)C)CC(C)C [Nisin]
fitness, [1], main component drawn
Conditions | first compound 0.001075 µg/mL | first compound 0.002 µg/mL | first compound 0.00215 µg/mL | first compound 0.004 µg/mL | first compound 0.0043 µg/mL | first compound 0.008 µg/mL
partner 0.4275 µg/mL | – | 0.982 | – | 0.838 | – | 0.636
partner 0.855 µg/mL | – | 0.943 | – | 0.844 | – | 0.538
partner 1.6 µg/mL | 0.0489 | – | 0.0715 | – | 0.0313 | –
partner 1.71 µg/mL | – | 0.0782 | – | 0.0797 | – | 0.0351
partner 3.2 µg/mL | 0.0397 | – | 0.038 | – | 0.0122 | –
partner 6.4 µg/mL | 0.0247 | – | 0.0066 | – | 0.0194 | –

— the supplement of paper PMC10627819
